Results as given in patent US11832638B2, “N-acyl derivatives of gamma amino-butyric acid and beta alanine as food flavouring compounds” (GIVAUDAN SA, priority 2012, dated 2023).

Experiments:
[1] = Comparison in a strawberry drink; conditions: 0.5 ppm, 7% sucrose, 0.1% citric acid, strawberry flavour 0.015%
Text: Comparison in a Strawberry Drink
Base is 7% sucrose, 0.1% citric acid, and a proprietary strawberry flavour @0.015%

[2] = Strawberry flavoured sugar sweetened yoghurt; conditions: 2 ppm, 1.5% fat yoghurt base, 8% sucrose, strawberry flavour 0.015%
Text: Strawberry Flavoured Sugar Sweetened Yoghurt
The base consisted of a 1.5% fat yoghurt base, sweetened with 8% sucrose by weight, flavoured with a proprietary strawberry flavour @ 0.015%.

CCCCCCCCCCCCCCCCCC(=O)NCCCC(=O)O [C18:0-gaba]
taste description [1]: mild creamy, fruity, juicy and long lasting
taste description [2]: juicy full, jammy
